Like-named read-outs stand apart in the source and are kept apart here.
Assays:
oedema with carrageenan = assay: Anti-inflammatory activity: test of oedema with carrageenan; type: in vivo; details: Rattus norvegicus, 30 mg/kg oral, rats, after 3 hours, n=6 per dose, read-out: Anti-inflammatory activity, % inhibition (volume of the oedema)
Description: (§1) The anti-inflammatory activity of the compounds of the Examples has been evaluated according to the method of oedema with carrageenan and the analgesic activity has been evaluated according to the method of arthritis with kaolin.
The anti-inflammatory activity is evaluated in rats by the test of oedema with carrageenan. The product is administered orally at a rate of 2.5 ml/100 g (n=6 animals per dose) 2 hours 30 minutes after a water overload taken orally (2.5 ml/100 g). One hour after administration of the product, the oedema is induced by plantar subcutaneous injection of aqueous 2% carrageenan solution. The percentage inhibition of the volume of the oedema is calculated after 3 hours by measuring the volume of the paw with the aid of a mercury plethysmometer.

[1] = tested on: arthritis with kaolin (pain response); assay: Analgesic activity: test of arthritis with kaolin; type: in vivo; details: 30 mg/kg oral, rats, 5 hours 30 minutes after administration, n=10 per dose
Description: as §1
The analgesic activity is evaluated in rats by the test of arthritis with kaolin. Thirty minutes after intra-articular administration of an aqueous 10% suspension of kaolin, the product is administered orally at a rate of 1 ml/100 g (n=10 animals per dose). The percentage inhibition of the animal's pain response (by rating the way it walks) is calculated 5 hours 30 minutes after administration of the product.

[2] = target: T1, COX-2 (purified enzyme from ewe placenta) (Ovis aries, UniProt P79208); assay: Inhibition of COX-2 enzymatic activity (PGE2 by EIA); type: biochemical; details: arachidonic acid 4 μM, mean of 4 determinations; for inhibition at 10 µM: 10^-5 M; for inhibition at 0.1 µM: 10^-7 M
T1 construct: purified enzyme from ewe placenta; from tissue; host or cells: ewe placenta
T1 sequence (P79208 17-603): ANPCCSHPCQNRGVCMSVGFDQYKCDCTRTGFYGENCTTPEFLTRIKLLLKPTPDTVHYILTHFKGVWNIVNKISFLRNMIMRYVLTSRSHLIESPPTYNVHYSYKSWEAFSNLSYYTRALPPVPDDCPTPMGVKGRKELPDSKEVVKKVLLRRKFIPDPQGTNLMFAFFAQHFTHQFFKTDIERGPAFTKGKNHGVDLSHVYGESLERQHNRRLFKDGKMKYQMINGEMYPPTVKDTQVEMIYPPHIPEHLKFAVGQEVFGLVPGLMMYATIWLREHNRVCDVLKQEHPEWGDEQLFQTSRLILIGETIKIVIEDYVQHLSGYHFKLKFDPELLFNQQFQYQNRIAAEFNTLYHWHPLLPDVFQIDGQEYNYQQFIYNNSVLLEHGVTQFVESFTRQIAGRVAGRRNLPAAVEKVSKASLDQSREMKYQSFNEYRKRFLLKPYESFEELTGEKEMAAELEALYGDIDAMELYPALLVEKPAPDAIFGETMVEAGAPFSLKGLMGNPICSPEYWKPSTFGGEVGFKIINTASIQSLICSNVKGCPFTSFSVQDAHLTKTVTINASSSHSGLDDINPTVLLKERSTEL
Description: (§2) Arachidonic acid (6 μM for COX-1, 4 μM for COX-2) is added to the reaction medium and incubation is carried out for 5 minutes at 25° C. When incubation has ended, the enzymatic reaction is stopped by the addition of 1N HCl and the PGE2 produced is determined by EIA. The results are expressed as the percentage inhibition of the COX-1 and COX-2 enzymatic activities and correspond to mean (±) standard deviations from the average of 4 determinations.

[3] = target: T2, COX-1 (purified enzyme from ram seminal vesicles) (Ovis aries, UniProt P05979); assay: Inhibition of COX-1 enzymatic activity (PGE2 by EIA); type: biochemical; details: arachidonic acid 6 μM, mean of 4 determinations; for inhibition at 10 µM: 10^-5 M; for inhibition at 0.1 µM: 10^-7 M
T2 construct: purified enzyme from ram seminal vesicles; from tissue; host or cells: ram seminal vesicles
T2 sequence (P05979 25-600): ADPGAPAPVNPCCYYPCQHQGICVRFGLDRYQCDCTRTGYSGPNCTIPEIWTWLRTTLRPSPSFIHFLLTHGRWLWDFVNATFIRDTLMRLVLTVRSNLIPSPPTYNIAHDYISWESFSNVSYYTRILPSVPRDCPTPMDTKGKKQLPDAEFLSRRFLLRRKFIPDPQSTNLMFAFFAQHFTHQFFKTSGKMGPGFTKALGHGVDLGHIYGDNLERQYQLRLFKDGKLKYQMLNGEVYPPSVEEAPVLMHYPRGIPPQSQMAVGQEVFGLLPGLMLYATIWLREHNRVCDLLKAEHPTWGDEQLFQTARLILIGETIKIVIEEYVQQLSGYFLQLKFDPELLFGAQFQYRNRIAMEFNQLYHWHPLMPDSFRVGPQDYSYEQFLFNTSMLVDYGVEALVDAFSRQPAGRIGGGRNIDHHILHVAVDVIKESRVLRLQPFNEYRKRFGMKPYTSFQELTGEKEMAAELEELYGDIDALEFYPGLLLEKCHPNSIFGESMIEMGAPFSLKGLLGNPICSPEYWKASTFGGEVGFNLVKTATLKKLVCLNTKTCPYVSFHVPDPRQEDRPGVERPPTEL
Description: as §2

[4] = Gastric tolerance (ulcerogenic dose); set-up: species or system Charles River rats strain CD; details: rat, in vivo
Description: The gastic tolerance study is carried out in Charles River rats strain CD weighing 110 to 150 g. The animals are placed on a water diet 24 hours before administration of the product or the vehicle alone, via the oral route (1 ml/100 g) (n=6 animals per dose). Six hours after administration,the animals are sacrificed and the stomachs are removed and opened along the greater curvature. The number of haemorrhagic spots and lines per stomach identified macroscopically permits establishing an ulceration index (0: no lesion, 1: 1 to 2 lesions, 2: 3 to 4 lesions, 3: 5 to 8 lesions, 4: 9 to 16 lesions, 5: more than 17 lesions) and estimating the 50% ulcerogenic dose (UD50 =dose expressed in mg/kg inducing 4 to 5 lesions).

Row | SMILES | inhibition in vivo at 30 mg/kg (oedema with carrageenan) | Analgesic activity, % inhibition (pain response) [1] | inhibition at 10 µM [2] | inhibition at 0.1 µM [2] | inhibition at 10 µM [3] | inhibition at 0.1 µM [3] | TD50 at 6 h ([4]; po) | TD50 at 6 h ([4]; rats, oral, 6 hours after administration, dose inducing 4 to 5 lesions, read-out: UD50 (confidence limit), 50% ulcerogenic dose)
1 | CS(=O)(=O)c1ccc(-c2coc(=O)n2-c2ccc(F)cc2)cc1 [Example 4, 3-(4-fluorophenyl)-4-(4-methanesulfonylphenyl)-3H-oxazol-2-one] | 53% | 55% | 82.7% | 12% | 0% | 0% | > 300 mg/kg | –
2 | CS(=O)(=O)c1ccc(-c2coc(=O)n2-c2ccccc2)cc1 [Example 16, 3-phenyl-4-(4-methanesulfonylphenyl)-3H-oxazol-2-one] | 45% | 60% | 78% | 16% | 0% | 0% | – | –
3 | CS(=O)(=O)c1ccc(-c2coc(=O)n2-c2ccc(Cl)cc2)cc1 [Example 17, 3-(4-chlorophenyl)-4-(4-methanesulfonylphenyl)-3H-oxazol-2-one] | 32% | 42% | 85% | 11% | 0% | 0% | – | –
4 | Cc1cccc(-n2c(-c3ccc(S(C)(=O)=O)cc3)coc2=O)c1 [Example 18, 3-(3-methylphenyl)-4-(4-methanesulfonylphenyl)-3H-oxazol-2-one] | 18% | 0% | 92% | 14% | 0% | 0% | – | –
5 | CS(=O)(=O)c1ccc(-c2coc(=O)n2-c2cccc(Cl)c2)cc1 [Example 19, 3-(3-chlorophenyl)-4-(4-methanesulfonylphenyl)-3H-oxazol-2-one] | 37% | 60% | 87% | 18% | 0% | 0% | – | –
6 | CS(=O)(=O)c1ccc(-c2coc(=O)n2-c2ccc(Cl)c(Cl)c2)cc1 [Example 20, 3-(3,4-dichlorophenyl)-4-(4-methanesulfonylphenyl)-3H-oxazol-2-one] | 48% | 75% | 94% | 26% | 0% | 0% | – | –
7 | CS(=O)(=O)c1ccc(-c2coc(=O)n2-c2cccc(F)c2)cc1 [Example 21, 3-(3-fluorophenyl)-4-(4-methanesulfonylphenyl)-3H-oxazol-2-one] | 55% | – | 76% | 11% | 0% | 0% | – | –
8 | Cc1ccc(-n2c(-c3ccc(S(C)(=O)=O)cc3)coc2=O)cc1 [Example 22, 3-(4-methylphenyl)-4-(4-methanesulfonylphenyl)-3H-oxazol-2-one] | 42% | – | 88% | 12% | – | – | – | –
9 | COc1ccc2c(c1)c(CC(=O)O)c(C)n2C(=O)c1ccc(Cl)cc1 [indomethacin, reference compound] | – | – | – | – | – | – | – | 8.3 mg/kg
